# From ChEMBL document CHEMBL1139308, “Identification and synthesis of 2,7-diamino-thiazolo[5,4-d]pyrimidine derivatives as TRPV1 antagonists” (Bioorg Med Chem Lett, 2009)
# Activity calls are given as the source filed them. The rule behind the calls is not given here.
# Assays:
# [1] = Aqueous solubility in simulated gastric fluid at pH 1.2 after 3 days by HPLC; type: physicochemical
# [2] = Aqueous solubility in fasted-state simulated intestinal fluid at pH 6.8 after 3 days by HPLC; type: physicochemical
# [3] = Volume of distribution at steady state in fasted Sprague-Dawley rat at 1 mg/kg, iv and 5 mg/kg, po; type: ADME, organism-based; details: in vivo, read-out: Vdss
# Rattus norvegicus [4] = species: Rattus norvegicus; assay: Suppression of KCl-induced rat bladder contraction at 100 nM; type: functional, tissue-based; details: Urinary bladder
# Rattus norvegicus [5] = assay: Clearance in fasted Sprague-Dawley rat at 1 mg/kg, iv and 5 mg/kg, po; type: ADME, organism-based; details: in vivo
# [6] = Half life in fasted Sprague-Dawley rat at 1 mg/kg, iv and 5 mg/kg, po; type: ADME, organism-based; details: in vivo
# Rattus norvegicus [7] = assay: Bioavailability in fasted Sprague-Dawley rat at 1 mg/kg, iv and 5 mg/kg, po; type: ADME, organism-based; details: in vivo
# [8] = Plasma concentration in carrageenan-induced thermal hyperalgesia rat model at 0.3 mg/kg, po after 5 hrs post-carrageenan injection; type: ADME, organism-based; parameters: dose 0.3 mg/kg, route oral
# [9] = Plasma concentration in carrageenan-induced thermal hyperalgesia rat model at 1 mg/kg, po after 5 hrs post-carrageenan injection; type: ADME, organism-based; parameters: dose 1 mg/kg, route oral
# Rattus norvegicus [10] = assay: Analgesic activity against carrageenan-induced thermal hyperalgesia in po dosed rat model assessed as paw withdrawal latency; type: functional, organism-based
# [11] = Plasma concentration in carrageenan-induced thermal hyperalgesia rat model at 3 mg/kg, po after 5 hrs post-carrageenan injection; type: ADME, organism-based; parameters: dose 3 mg/kg, route oral
# Rattus norvegicus [12] = assay: Analgesic activity in rat model assessed as inhibition of carrageenan-induced thermal hyperalgesia at 0.3 mg/kg, po administered 1 hr prior carrageenan challenge relative to control; type: functional, organism-based; parameters: dose 0.3 mg/kg
# Rattus norvegicus [13] = assay: Analgesic activity in rat model assessed as inhibition of carrageenan-induced thermal hyperalgesia at 3 mg/kg, po administered 1 hr prior carrageenan challenge relative to control; type: functional, organism-based; parameters: dose 3 mg/kg
# [14] = biological target: T1, Transient receptor potential cation channel subfamily V member 1 (Rattus norvegicus, UniProt O35433); assay: Displacement of [3H]RTX from rat TRPV1 expressed in HEK293 cells; type: cell-based
# T1 sequence (O35433 whole entry): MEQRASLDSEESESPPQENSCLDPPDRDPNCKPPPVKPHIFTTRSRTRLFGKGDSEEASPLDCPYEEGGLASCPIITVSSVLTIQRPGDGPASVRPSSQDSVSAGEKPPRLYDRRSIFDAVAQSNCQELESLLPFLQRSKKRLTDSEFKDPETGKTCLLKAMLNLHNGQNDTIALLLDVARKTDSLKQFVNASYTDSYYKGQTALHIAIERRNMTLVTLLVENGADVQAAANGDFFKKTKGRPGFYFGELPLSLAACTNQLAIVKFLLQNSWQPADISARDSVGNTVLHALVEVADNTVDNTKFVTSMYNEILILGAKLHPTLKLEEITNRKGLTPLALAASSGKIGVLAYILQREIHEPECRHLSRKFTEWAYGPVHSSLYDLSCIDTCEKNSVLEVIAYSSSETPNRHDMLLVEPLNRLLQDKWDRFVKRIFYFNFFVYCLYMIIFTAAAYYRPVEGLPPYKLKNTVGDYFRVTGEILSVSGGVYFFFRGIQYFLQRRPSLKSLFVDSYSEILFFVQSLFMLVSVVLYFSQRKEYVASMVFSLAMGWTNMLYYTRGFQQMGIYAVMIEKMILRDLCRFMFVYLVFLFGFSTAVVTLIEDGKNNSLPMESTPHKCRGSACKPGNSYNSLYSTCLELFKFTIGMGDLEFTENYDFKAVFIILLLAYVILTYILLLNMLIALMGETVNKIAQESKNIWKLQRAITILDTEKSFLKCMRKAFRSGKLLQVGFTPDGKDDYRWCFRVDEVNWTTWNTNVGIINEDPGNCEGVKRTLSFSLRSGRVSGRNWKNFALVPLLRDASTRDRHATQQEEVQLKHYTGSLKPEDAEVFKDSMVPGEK
# Rattus norvegicus [15] = assay: Analgesic activity in rat model assessed as inhibition of carrageenan-induced thermal hyperalgesia at 30 mg/kg, po administered 1 hr prior carrageenan challenge relative to control; type: functional, organism-based; parameters: dose 30 mg/kg
# Rattus norvegicus [16] = assay: Analgesic activity in rat model assessed as maximum degree of inhibition of carrageenan-induced thermal hyperalgesia at 3 mg/kg, po administered 1 hr prior carrageenan challenge measured after 4 hrs; type: functional; parameters: scale not given: the % may be the effect or the level left
# Rattus norvegicus [17] = assay: AUC (0 to infinity) in fasted Sprague-Dawley rat at 5 mg/kg, po; type: ADME, organism-based, Plasma; parameters: time infinity, dose 5 mg/kg, route oral; details: in vivo
# [18] = biological target: T1, Transient receptor potential cation channel subfamily V member 1; assay: Antagonist activity at rat TRPV1 expressed in HEK293 cells assessed as inhibition of low pH-induced calcium influx; type: functional, cell-based
# [19] = biological target: Transient receptor potential cation channel subfamily V member 1 (Homo sapiens, UniProt Q8NER1); assay: Antagonist activity at human TRPV1 expressed in HEK293 cells assessed as inhibition of low pH-induced calcium influx; type: functional, cell-based
# Sequence of Transient receptor potential cation channel subfamily V member 1 (Homo sapiens, UniProt Q8NER1) (Q8NER1 whole entry): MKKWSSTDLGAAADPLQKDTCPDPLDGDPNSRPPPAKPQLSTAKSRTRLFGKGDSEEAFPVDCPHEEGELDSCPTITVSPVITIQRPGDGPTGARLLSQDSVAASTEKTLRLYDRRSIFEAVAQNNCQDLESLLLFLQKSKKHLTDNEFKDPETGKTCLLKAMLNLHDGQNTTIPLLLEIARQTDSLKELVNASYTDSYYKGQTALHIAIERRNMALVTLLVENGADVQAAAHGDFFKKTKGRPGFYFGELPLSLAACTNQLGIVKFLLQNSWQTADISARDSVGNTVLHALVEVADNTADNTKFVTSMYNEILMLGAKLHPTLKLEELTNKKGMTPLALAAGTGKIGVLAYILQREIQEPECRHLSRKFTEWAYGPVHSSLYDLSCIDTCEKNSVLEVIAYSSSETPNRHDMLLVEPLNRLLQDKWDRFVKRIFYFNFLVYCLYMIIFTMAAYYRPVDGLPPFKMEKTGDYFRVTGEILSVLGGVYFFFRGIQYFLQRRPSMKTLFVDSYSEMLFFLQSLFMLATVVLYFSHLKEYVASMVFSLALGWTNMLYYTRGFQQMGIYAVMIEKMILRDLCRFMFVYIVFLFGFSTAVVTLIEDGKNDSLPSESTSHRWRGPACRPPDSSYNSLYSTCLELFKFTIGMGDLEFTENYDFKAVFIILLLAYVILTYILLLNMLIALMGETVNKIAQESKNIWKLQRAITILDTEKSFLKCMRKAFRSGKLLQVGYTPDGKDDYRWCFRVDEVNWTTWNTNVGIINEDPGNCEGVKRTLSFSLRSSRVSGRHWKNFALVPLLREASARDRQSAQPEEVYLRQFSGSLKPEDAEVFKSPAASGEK
# [20] = Cmax in fasted Sprague-Dawley rat at 5 mg/kg, po; type: ADME, organism-based; parameters: dose 5 mg/kg, route oral; details: in vivo
# [21] = biological target: Transient receptor potential cation channel subfamily V member 1 (Rattus norvegicus) (UniProt O35433); assay: Antagonist activity at rat TRPV1 assessed as fold increase in EC50 of capsaicin-induced isometric contraction in rat bladder at 100 nM; type: functional
# Sequence of Transient receptor potential cation channel subfamily V member 1 (Rattus norvegicus) (O35433 whole entry): as the sequence (O35433 whole entry) above
# Rattus norvegicus [22] = assay: Analgesic activity in rat model assessed as inhibition of carrageenan-induced thermal hyperalgesia at 1 mg/kg, po administered 1 hr prior carrageenan challenge relative to control; type: functional, organism-based; parameters: dose 1 mg/kg
# [23] = Tmax in fasted Sprague-Dawley rat at 5 mg/kg, po; type: ADME, organism-based; parameters: dose 5 mg/kg, route oral; details: in vivo
# Rattus norvegicus [24] = assay: Analgesic activity in po dosed rat model assessed as inhibition of carrageenan-induced thermal hyperalgesia administered 1 hr prior carrageenan challenge; type: functional
# [25] = Plasma concentration in carrageenan-induced thermal hyperalgesia rat model at 30 mg/kg, po after 5 hrs post-carrageenan injection; type: ADME, organism-based; parameters: dose 30 mg/kg, route oral
structure (smiles),measurement,setting,value
FC(F)(F)c1ccc(Nc2ncnc3sc(Nc4c(Cl)cccc4Cl)nc23)cc1,solubility at 72 h,[1],≤ 1 µg/mL
same,solubility at 72 h,[2],2 µg/mL
same,Vd,[3],1.6 L/kg
same,Activity,Rattus norvegicus [4],inactive
same,CL,Rattus norvegicus [5],10 mL/min/kg
same,half-life,[6],2.2 h
same,F,Rattus norvegicus [7],43%
same,concentration at 5 h,[8],10 nM
same,concentration at 5 h,[9],58 nM
same,Activity,Rattus norvegicus [10],inactive
same,concentration at 5 h,[11],428 nM
same,Activity,Rattus norvegicus [12],Active
same,Activity,Rattus norvegicus [13],Active
same,Ki,[14],4 nM
same,Activity,Rattus norvegicus [15],Active
same,Activity,Rattus norvegicus [16],57%
same,AUC,Rattus norvegicus [17],10000 ng·h/mL
same,IC50,[18],6 nM
same,IC50,[19],19 nM
same,Cmax,[20],1100 nM
same,fold change (FC),[21],6
same,Activity,Rattus norvegicus [22],Active
same,Tmax,[23],2 h
same,ED50,Rattus norvegicus [24],0.5 mg/kg
same,concentration at 5 h,[25],3050 nM
